This passage reports Transdermal deliverability, Sagittal diameter and Waist circumference results from US20220218689A1, “T[…] COMPOSITIONS AND METHODS FOR USING THE SAME” (Saniona A/S, priority 2018, published 2022).

Series [1] can be described thus: In vitro skin flux study (Franz cell transdermal flux test). It counts as in vitro ADME, human. As to conditions: free base; conclusion from the in vitro skin flux study. An excerpt: Human cadaver skin was used and epidermal layers (stratum corneum and epidermis) were separated from the full-thickness skin as skin membrane. Samples were die-cut with an arch punch to a final diameter of about 2.0 cm^2. The release liner was removed and the system was placed on top of the epidermis/stratum corneum with the drug adhesive layer facing the stratum corneum. Gentle pressure was applied to effect good contact between the adhesive layer and stratum corneum. The donor and receptor sides of the Franz cell were clamped together and the receptor solution containing a phosphate buffer at pH 6.5 was added to the Franz cell. The cells were kept at 33° C. for the duration of the experiment. Samples of the receptor solution were taken at regular intervals and the active agent concentration was measured by HPLC. The removed receptor solution was replaced with fresh solution to maintain the sink conditions. The flux was calculated from the slope of cumulative amounts of the drug in the receiver compartment versus time plot.
Transdermal delivery devices containing various formulations of (1 R,2 R,3 S,5 S)-3-(3,4-dichlorophenyl)-2-(methoxymethyl)-8-azabicyclo[3.2.1]octane (i.e., NS2359) are summarized in Table 1. An in vitro skin flux study was performed as described above with transdermal delivery devices having the formulations listed in Table 1. […]

The conditions of series [2]: Astrup et al., 2008, Lancet 372: 1906-13; cited from earlier work.

On to `COC[C@@H]1[C@@H](c2ccc(Cl)c(Cl)c2)C[C@@H]2CC[C@H]1N2` [NS2359, (1 R,2 R,3 S,5 S)-3-(3,4-dichlorophenyl)-2-(methoxymethyl)-8-azabicyclo[3.2.1]octane], for which the Transdermal deliverability entry in series [1] is listed as “can be delivered transdermally”.

With `CCOC[C@@H]1[C@@H](c2ccc(Cl)c(Cl)c2)C[C@@H]2CC[C@H]1N2C` [Tesofensine, (1 R,2 R,3 S,5 S)-3-(3,4-dichlorophenyl)-2-(ethoxymethyl)-8-methyl-8-azabicyclo[3.2.1]octane], in series [2], the Sagittal diameter entry was “significantly decreases” and the Waist circumference result is listed as “significantly decreases”.
